{"source": "patent US20040072825A1", "about": "“2-(2-(4-((2r)-2-methyl-3-(10h-phenothiazin-10-yl)propyl)-1-piperazinyl)-ethoxy) ethanol, process for the preparation thereof, pharmaceutical compositions containing said compound and therapeutic uses thereof” (priority 2000, published 2004)", "key": {"[1]": {"tested_on": "vomiting induced by cisplatin in ferrets", "experiment": "Cisplatin-induced emesis in ferrets, single oral administration", "format": "in vivo, ferret", "details": "for Proportion of animal vomiting: 60 min before cisplatin i.v., 5 h observation", "method": "Cisplatin-induced emesis in ferrets is largely considered as the most suitable animal model for the study of drug activity against chemotherapy-induced vomiting in man (Georges L. King. Animal models in the study of vomiting. Can. J. Physiol. Pharmacol. 68, 260-268, 1988).\nThree compounds, dixyrazine dihydrochloride and its (R) and (S) enantiomers were tested for their activity against vomiting induced by cisplatin in ferrets following single oral administration.\nThe study involved 14 groups of 8 male ferrets weighing between 0.93 kg and 1.45 kg purchased from the company MARSHALL FARMS (NEW YORK, U.S.). Groups were defined as follows: […]\ngroup 1: control group dosed with the vehicle of test substances (sterile water),\ngroup 2: method-control group dosed with a method-control substance, granisetron ([…], RBI®), at a dose of 0.3 mg/kg,\ngroup 3 to 6: group dosed with diyyrazine dihydrochloride at 4 increasing doses of 7.5, 15, 30 and 60 mg/kg,\ngroup 7 to 10: group dosed with the (R) enantiomer of dixyrazine dihydrochloride at 4 increasing doses of 7.5, 15, 30 and 60 mg/kg,\ngroup 11 to 14: group dosed with the (S) enantiomer of drazine dihydrochloride at 4 increasing doses of 7.5, 15, 30 and 60 mg/kg.\nOn the day prior to the test, animals were fasted and allowed access only to water.\nOn the morning of the day of the study, free access to food was allowed for 30 minutes. Subsequently, animals were again put on to a water-only fast for 30 minutes before administration of the three compounds, the vehicle or the method-control substance which were administrated orally in a volume of 5 ml/kg.\nCisplatin was administrated by the intravenous route at a dose of 115 mg/m^2 and in a volume of 115 ml/m^2 (i.e. approximately at 10 mg/kg), 60 minutes after treatment. […] Emesis was characterised by abdominal contractions, which were associated with expulsion or attempted expulsion of stomach contents.\nThe time to onset of emesis was noted. The number of episodes of vomiting and the number of abdominal retches associated with episodes of emesis were also noted."}, "[2]": {"biological_target": "T1, human D3 dopaminergic receptor (Homo sapiens, UniProt P35462)", "T1 construct": "expressed in transfected cells; host or cells: CHO", "T1 sequence (P35462 whole entry)": "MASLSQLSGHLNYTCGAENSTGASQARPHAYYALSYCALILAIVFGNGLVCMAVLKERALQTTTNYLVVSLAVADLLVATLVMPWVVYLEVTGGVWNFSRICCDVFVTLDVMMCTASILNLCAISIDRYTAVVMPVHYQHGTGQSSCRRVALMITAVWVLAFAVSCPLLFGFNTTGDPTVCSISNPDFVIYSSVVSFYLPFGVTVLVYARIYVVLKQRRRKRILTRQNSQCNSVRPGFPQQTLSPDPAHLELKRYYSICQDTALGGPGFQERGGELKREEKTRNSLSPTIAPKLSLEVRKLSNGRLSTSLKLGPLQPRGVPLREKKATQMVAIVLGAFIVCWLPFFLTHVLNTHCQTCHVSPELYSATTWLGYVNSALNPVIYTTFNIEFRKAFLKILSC", "experiment": "Radioligand binding, human D3 receptor (CHO cell culture)", "method": "(§1) The test substances, biological materials and experimental protocols used in the study are described in Moguilevsky N. et al. (1994) Eur. J. […] List S. J. (1981) Proc. Natl. Acad. Sci.78:2620-2624; MacKenzie R. G. et al. (1994) Eur. J. Pharmacol. 266:79-85; Van Tol et al., (1992) Nature, 358:149-152. […] Filtermat A, Walac), then washed with cold buffer using a filtration unit ‘Cell Harvester’ (Brandel, Packard or Tomtec). The bound radioactivity is measured using a scintillation liquid (Formula 989 or Microscint 0, Packard) or solid (Meltilex B/HS, Wallac), and a scintillation counter (LS 6000, Beckman; Topcount, Packard; Betaplate, Wallac). […] Each experiment was performed in duplicate (n=2). In parallel, a positive control (concentration of reference substance causing 50% inhibition of radioligand specific binding) is tested to validate the assay. For competition experiments, membranes are incubated in the buffer containing the radioligand and increasing concentrations of unlabeled test substances. Each binding assay is validated with a reference compound tested in parallel. […] where BO and BI represent the total binding in the absence and presence of the unlabelled drug (in dpm/assay) and NSB is the amount of non specific binding (in dpm/assay). Analysis of raw data and pIC50 calculation is performed by computerized non-linear curve fitting methods using a set of equations describing competitive interactions between labelled and unlabeled ligands which obey the law of mass action. IC50 represents the concentration of the test substance inhibiting 50% of the specific binding of the radioligand. It is determined in competitive binding experiments by measuring the binding of a single concentration of a radioactive ligand at equilibrium with various concentrations of the unlabeled test substance. pIC50=−log IC50"}, "D2 dopaminergic receptor": {"biological_target": "D2 dopaminergic receptor (Rattus norvegicus, UniProt P61169)", "sequence (P61169 1-415 isoform P61169-2)": "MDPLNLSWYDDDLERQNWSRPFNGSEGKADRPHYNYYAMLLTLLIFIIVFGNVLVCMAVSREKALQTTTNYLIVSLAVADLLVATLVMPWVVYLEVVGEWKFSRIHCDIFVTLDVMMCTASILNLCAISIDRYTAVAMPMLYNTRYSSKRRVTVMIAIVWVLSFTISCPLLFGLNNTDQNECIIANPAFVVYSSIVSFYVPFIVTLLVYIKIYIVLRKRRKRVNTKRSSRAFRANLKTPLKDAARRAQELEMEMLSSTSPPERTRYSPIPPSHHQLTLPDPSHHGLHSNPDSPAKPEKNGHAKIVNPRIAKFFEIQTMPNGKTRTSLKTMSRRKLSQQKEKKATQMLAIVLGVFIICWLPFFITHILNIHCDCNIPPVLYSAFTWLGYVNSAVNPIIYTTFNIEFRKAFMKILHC", "experiment": "Radioligand binding, D2 receptor (rat striatum membranes)", "method": "as §1"}, "[3]": {"biological_target": "human H1 histaminic receptor (Homo sapiens, UniProt P35367)", "sequence (P35367 whole entry)": "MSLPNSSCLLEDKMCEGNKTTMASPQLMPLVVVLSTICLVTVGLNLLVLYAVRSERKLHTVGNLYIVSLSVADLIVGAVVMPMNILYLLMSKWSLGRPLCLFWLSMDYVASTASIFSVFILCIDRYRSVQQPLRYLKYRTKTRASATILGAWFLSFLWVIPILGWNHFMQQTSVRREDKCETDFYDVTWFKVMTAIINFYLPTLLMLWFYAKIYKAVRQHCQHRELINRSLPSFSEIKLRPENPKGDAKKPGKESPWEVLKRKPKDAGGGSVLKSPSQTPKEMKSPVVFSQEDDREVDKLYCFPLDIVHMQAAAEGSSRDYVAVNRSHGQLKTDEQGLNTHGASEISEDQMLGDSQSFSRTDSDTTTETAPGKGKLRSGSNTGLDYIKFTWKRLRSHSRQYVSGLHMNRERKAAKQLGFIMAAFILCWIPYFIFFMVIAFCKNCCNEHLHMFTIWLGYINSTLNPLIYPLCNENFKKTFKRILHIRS", "experiment": "Radioligand binding, human H1 receptor (CHO cell culture)", "method": "as §1"}, "5-HT3 receptor": {"biological_target": "T2, 5-HT3 receptor (Homo sapiens, UniProt P46098)", "T2 sequence (P46098 24-478)": "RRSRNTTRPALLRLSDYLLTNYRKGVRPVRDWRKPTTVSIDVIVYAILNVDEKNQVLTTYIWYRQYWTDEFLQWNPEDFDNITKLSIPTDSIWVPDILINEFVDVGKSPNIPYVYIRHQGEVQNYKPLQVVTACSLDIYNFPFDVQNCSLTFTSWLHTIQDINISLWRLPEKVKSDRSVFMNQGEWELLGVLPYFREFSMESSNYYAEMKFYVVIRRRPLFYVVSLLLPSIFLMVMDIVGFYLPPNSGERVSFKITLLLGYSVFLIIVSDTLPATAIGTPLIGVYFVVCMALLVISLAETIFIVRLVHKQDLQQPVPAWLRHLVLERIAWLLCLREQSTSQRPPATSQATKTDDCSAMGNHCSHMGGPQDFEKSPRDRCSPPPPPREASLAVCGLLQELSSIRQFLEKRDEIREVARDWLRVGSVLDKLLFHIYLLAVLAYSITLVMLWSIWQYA", "experiment": "Radioligand binding, 5-HT3 receptor", "details": "mean of duplicate, read-out: percent inhibition of control specific binding"}, "[4]": {"biological_target": "T3, 5-HT2 serotonergic receptor (Rattus norvegicus, UniProt P14842)", "T3 construct": "the rat cerebral cortex (5-HT2 receptor); from tissue; host or cells: rat cerebral cortex", "T3 sequence (P14842 whole entry)": "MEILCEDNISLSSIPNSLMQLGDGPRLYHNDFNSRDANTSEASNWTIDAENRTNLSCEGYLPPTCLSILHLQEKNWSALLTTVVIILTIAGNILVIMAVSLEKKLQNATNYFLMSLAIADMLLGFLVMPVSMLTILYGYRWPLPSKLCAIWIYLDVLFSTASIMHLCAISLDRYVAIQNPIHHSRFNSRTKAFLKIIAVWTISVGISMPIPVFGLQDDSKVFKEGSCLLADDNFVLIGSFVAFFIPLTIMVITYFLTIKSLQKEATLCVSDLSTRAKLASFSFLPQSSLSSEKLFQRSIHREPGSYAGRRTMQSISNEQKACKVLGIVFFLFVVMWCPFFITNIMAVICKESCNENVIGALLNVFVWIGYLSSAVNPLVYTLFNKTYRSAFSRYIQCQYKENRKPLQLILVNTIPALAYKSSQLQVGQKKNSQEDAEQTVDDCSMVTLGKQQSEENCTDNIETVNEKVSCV", "experiment": "Radioligand binding, 5-HT2 receptor (rat cerebral cortex)", "method": "as §1"}, "[5]": {"tested_on": "postoperative nausea and vomiting", "details": "prophylactic administration, analgesia with morphine; cited from earlier work"}, "[6]": {"details": "highest dose of 60 mg/kg p.o., 60 mg/kg"}}, "note": "“Also recorded” adds a separate entry of the source. Marks after values point to notes of the source that are not given here.", "data": [{"compound": "CC(CN1CCN(CCOCCO)CC1)CN1c2ccccc2Sc2ccccc21", "note": "(racemic) [Dixyrazine, 2-(2-(4-(2-methyl-3-(10H-phenothiazin-10-yl)propyl)-1-piperazinyl)ethoxy)ethanol, reference compound]", "values": [{"measurement": "Time to onset of emesis", "setting": "[1]; 7.5 mg/kg p.o.", "value": 90, "unit": "min"}, {"measurement": "Proportion of animal vomiting", "setting": "[1]; 7.5 mg/kg p.o.", "value": "8/8"}, {"measurement": "Time to onset of emesis", "setting": "[1]; 15 mg/kg p.o.", "value": 76, "unit": "min"}, {"measurement": "Proportion of animal vomiting", "setting": "[1]; 15 mg/kg p.o.", "value": "5/8"}, {"measurement": "Time to onset of emesis", "setting": "[1]; 30 mg/kg p.o.", "value": 73, "unit": "min"}, {"measurement": "Proportion of animal vomiting", "setting": "[1]; 30 mg/kg p.o.", "value": "7/8"}, {"measurement": "Time to onset of emesis", "setting": "[1]; 60 mg/kg p.o.", "value": 81, "unit": "min"}, {"measurement": "suppression of vomiting, number of animals", "setting": "[1]; 60 mg/kg p.o.", "value": "5 animals out of 8"}, {"measurement": "Proportion of animal vomiting", "setting": "[1]; 60 mg/kg p.o.", "value": "3/8*"}, {"measurement": "antiemetic effect (in words)", "setting": "[1]; [6]", "value": "induced an antiemetic effect"}, {"measurement": "effect on time to onset of emesis (in words)", "setting": "[1]; [6]", "value": "no effect; also recorded: did not alter this variable"}, {"measurement": "antiemetic effect (in words)", "setting": "[1]; highest dose of 60 mg/kg p.o., listed as dixyrazine dihydrochloride, 60 mg/kg", "value": "significantly reduce cisplatin-induced emesis"}, {"measurement": "inhibition at 0.1 µM", "setting": "[2]; D3, 0.1 μM, mean of duplicate, read-out: percent inhibition of control specific binding", "value": 84, "unit": "%"}, {"measurement": "percent inhibition of control specific binding", "setting": "[2]; D3, 10 μM, mean of duplicate, 10 µM", "value": 100, "unit": "%"}, {"measurement": "inhibition at 10 µM", "setting": "[2]; D3, 10 μM, mean of duplicate, read-out: percent inhibition of control specific binding", "value": "> 90", "unit": "%"}, {"measurement": "IC50", "setting": "[2]; D3, competitive binding, read-out: Affinity pIC50 (-log IC50) (converted)", "value": 50.1, "unit": "nM"}, {"measurement": "percent inhibition of control specific binding", "setting": "D2 dopaminergic receptor; D2, 10 μM, mean of duplicate, 10 µM", "value": 94, "unit": "%"}, {"measurement": "inhibition at 10 µM", "setting": "D2 dopaminergic receptor; D2, 10 μM, mean of duplicate, read-out: percent inhibition of control specific binding", "value": "> 90", "unit": "%"}, {"measurement": "IC50", "setting": "D2 dopaminergic receptor; D2, competitive binding, read-out: Affinity pIC50 (-log IC50) (converted)", "value": 5.01, "unit": "nM"}, {"measurement": "percent inhibition of control specific binding", "setting": "[3]; H1, 10 μM, mean of duplicate, 10 µM", "value": 100, "unit": "%"}, {"measurement": "inhibition at 10 µM", "setting": "[3]; H1, 10 μM, mean of duplicate, read-out: percent inhibition of control specific binding", "value": "> 90", "unit": "%"}, {"measurement": "IC50", "setting": "[3]; H1, competitive binding, read-out: Affinity pIC50 (-log IC50) (converted)", "value": 0.501, "unit": "nM"}, {"measurement": "inhibition at 0.1 µM", "setting": "5-HT3 receptor; 5-HT3, 0.1 μM", "value": "< 10", "unit": "%"}, {"measurement": "inhibition at 10 µM", "setting": "5-HT3 receptor; 5-HT3, 10 μM", "value": 26, "unit": "%"}, {"measurement": "percent inhibition of control specific binding", "setting": "[4]; 5-HT2, 10 μM, mean of duplicate, 10 µM", "value": 102, "unit": "%"}, {"measurement": "IC50", "setting": "[4]; 5-HT2, competitive binding, read-out: Affinity pIC50 (-log IC50) (converted)", "value": 6.31, "unit": "nM"}, {"measurement": "inhibition at 10 µM", "setting": "[4]; read-out: percent inhibition of control specific binding, 5-HT2, 10 μM, mean of duplicate", "value": "> 90", "unit": "%"}, {"measurement": "incidence and severity of vomiting (in words)", "setting": "[5]", "value": "reduces the incidence and severity of vomiting"}]}]}
